What follows are molecules tested on TC32 Ewing sarcoma cells, expressing EWS-FLI1 (assay: Growth inhibition assay, TC32 cells). Conditions: ratio of GI50 PC3 to TC32.
Format: cell-based
Method: Growth inhibition assay to assess cytotoxicity in ETS vs non-ETS expressing cells. Cells were seeded in clear 96-well plates (VWR, Radnor, PA). Seeding densities were optimized for each cell line to support 5 days of linear growth. Following a 24 hours attachment period, cells in duplicate wells were treated with half-log increments of respective compounds (0 nM and 0.3 nM-10 μM). Working stocks were prepared from an initial 10 mM drug stock diluted in either 100% ethanol or dimethyl sulfoxide (DMSO). All wells contained a final concentration of 0.1% (v/v) respective organic solvent. Immediately following treatment, cell viability was measured for vehicle control (Day 0) wells. Cell viability was measured in the remaining wells after 72 hours of incubation with compound or vehicle control (Day 3).
Percent viability, relative to the initial cell seeding concentration, was calculated by ((TreatmentDay3−Vehicle ControlDay0)/(Vehicle ControlDay3−Vehicle ControlDay0))×100. Percent cell viability was plotted as a function of compound concentration (Log [M]) and the data were fit using a 3-parameter non-linear model with fixed Hill slope constant and 4-parameter non-linear model with variable Hill slope constant. The model with the best curve fit was used to estimate the GI50 in GraphPad Prism 7.0 software (GraphPad Software, La Jolla, CA). The 3-parameter equation used was Y=Bottom+(Top−Bottom)/(1+10[…]((X−Log[IC50]))). The 4-parameter equation used was Y=Bottom+(Top−Bottom)/(1+10[…]((Log[IC50]−X)*Hillslope)). Top and Bottom are plateaus in the units of the Y-axis (response). IC50 is the response (Y-axis) halfway between Top and Bottom plateaus.
All compounds were tested at least once in multi-well replicates and each experiment included one a control compound (i.e., MTM) to ensure the stable response of the cell lines. The selectivity index was estimated by determining the ratio of GI50 estimates between ETS fusion negative and ETS fusion positive cell lines.

Which “PC:TC32 (cellular selectivity)” value does the source give for `COC(=O)C(Cc1ccccc1)NC(=O)C(Cc1ccccc1)NC(=O)CON=C(C(O)C(C)O)C(OC)C1Cc2cc3cc(OC4CC(OC5CC(O)C(O)C(C)O5)C(O)C(C)O4)c(C)c(O)c3c(O)c2C(=O)C1OC1CC(OC2CC(OC3CC(C)(O)C(O)C(C)O3)C(O)C(C)O2)C(O)C(C)O1` (stereo not drawn) [MTM (28)] here?
Its value is 11.68.

Which “PC:TC32 (cellular selectivity)” value does the source give for `COC(C(=NOCC(=O)NCCc1ccccc1)C(O)C(C)O)C1Cc2cc3cc(OC4CC(OC5CC(O)C(O)C(C)O5)C(O)C(C)O4)c(C)c(O)c3c(O)c2C(=O)C1OC1CC(OC2CC(OC3CC(C)(O)C(O)C(C)O3)C(O)C(C)O2)C(O)C(C)O1` (stereo not drawn) [MTM (29)] here?
Its value is 1.58.

How did the “PC:TC32 (cellular selectivity)” value turn out when `C#CCON=C(C(O)C(C)O)C(OC)C1Cc2cc3cc(OC4CC(OC5CC(O)C(O)C(C)O5)C(O)C(C)O4)c(C)c(O)c3c(O)c2C(=O)C1OC1CC(OC2CC(OC3CC(C)(O)C(O)C(C)O3)C(O)C(C)O2)C(O)C(C)O1` (stereo not drawn) [MTM (17Z)] was run?
Its value is 1.89.

With `COc1ccc(CON=C(C(O)C(C)O)C(OC)C2Cc3cc4cc(OC5CC(OC6CC(O)C(O)C(C)O6)C(O)C(C)O5)c(C)c(O)c4c(O)c3C(=O)C2OC2CC(OC3CC(OC4CC(C)(O)C(O)C(C)O4)C(O)C(C)O3)C(O)C(C)O2)cc1` (stereo not drawn) [MTM (14E)] as the molecule, how does the “PC:TC32 (cellular selectivity)” value read?
Its value is 2.05.

How did the “PC:TC32 (cellular selectivity)” value turn out when `COC(=O)c1ccc(NC(=O)CON=C(C(O)C(C)O)C(OC)C2Cc3cc4cc(OC5CC(OC6CC(O)C(O)C(C)O6)C(O)C(C)O5)c(C)c(O)c4c(O)c3C(=O)C2OC2CC(OC3CC(OC4CC(C)(O)C(O)C(C)O4)C(O)C(C)O3)C(O)C(C)O2)c(OCC(C)C)c1` (stereo not drawn) [MTM (61)] was run?
The value was 5.7.

How did the “PC:TC32 (cellular selectivity)” value turn out when `C#CCON=C(C(O)C(C)O)C(OC)C1Cc2cc3cc(OC4CC(OC5CC(O)C(O)C(C)O5)C(O)C(C)O4)c(C)c(O)c3c(O)c2C(=O)C1OC1CC(OC2CC(OC3CC(C)(O)C(O)C(C)O3)C(O)C(C)O2)C(O)C(C)O1` (stereo not drawn) [MTM (17E)] was run?
The value was 2.40.

For `COC(C(=NOCC(=O)Nc1ccccc1)C(O)C(C)O)C1Cc2cc3cc(OC4CC(OC5CC(O)C(O)C(C)O5)C(O)C(C)O4)c(C)c(O)c3c(O)c2C(=O)C1OC1CC(OC2CC(OC3CC(C)(O)C(O)C(C)O3)C(O)C(C)O2)C(O)C(C)O1` (stereo not drawn) [MTM (32)], which “PC:TC32 (cellular selectivity)” value is on record?
The value was 1.11.

With `COC(C(=NOCC(=O)NC(Cc1c[nH]c2ccccc12)C(=O)NCc1cnccn1)C(O)C(C)O)C1Cc2cc3cc(OC4CC(OC5CC(O)C(O)C(C)O5)C(O)C(C)O4)c(C)c(O)c3c(O)c2C(=O)C1OC1CC(OC2CC(OC3CC(C)(O)C(O)C(C)O3)C(O)C(C)O2)C(O)C(C)O1` (stereo not drawn) [MTM (56)] as the molecule, how does the “PC:TC32 (cellular selectivity)” value read?
The value was 1.9.

How did the “PC:TC32 (cellular selectivity)” value turn out when `COC(C(=NOCC(=O)NCc1ccccc1)C(O)C(C)O)C1Cc2cc3cc(OC4CC(OC5CC(O)C(O)C(C)O5)C(O)C(C)O4)c(C)c(O)c3c(O)c2C(=O)C1OC1CC(OC2CC(OC3CC(C)(O)C(O)C(C)O3)C(O)C(C)O2)C(O)C(C)O1` (stereo not drawn) [MTM (31)] was run?
Its value is 1.83.

With `COC(C(=NOCC(C)C)C(O)C(C)O)C1Cc2cc3cc(OC4CC(OC5CC(O)C(O)C(C)O5)C(O)C(C)O4)c(C)c(O)c3c(O)c2C(=O)C1OC1CC(OC2CC(OC3CC(C)(O)C(O)C(C)O3)C(O)C(C)O2)C(O)C(C)O1` (stereo not drawn) [MTM (7E)] as the molecule, how does the “PC:TC32 (cellular selectivity)” value read?
The value was 1.04.

For `COC(C(=NOCC(=O)Nc1ccc2[nH]ccc2c1)C(O)C(C)O)C1Cc2cc3cc(OC4CC(OC5CC(O)C(O)C(C)O5)C(O)C(C)O4)c(C)c(O)c3c(O)c2C(=O)C1OC1CC(OC2CC(OC3CC(C)(O)C(O)C(C)O3)C(O)C(C)O2)C(O)C(C)O1` (stereo not drawn) [MTM (60)], which “PC:TC32 (cellular selectivity)” value is on record?
The value was 10.

`COc1ccc(CON=C(C(O)C(C)O)C(OC)C2Cc3cc4cc(OC5CC(OC6CC(O)C(O)C(C)O6)C(O)C(C)O5)c(C)c(O)c4c(O)c3C(=O)C2OC2CC(OC3CC(OC4CC(C)(O)C(O)C(C)O4)C(O)C(C)O3)C(O)C(C)O2)cc1` (stereo not drawn) [MTM (14Z)] was tested. Which “PC:TC32 (cellular selectivity)” value did it give?
Its value is 2.91.

Which “PC:TC32 (cellular selectivity)” value does the source give for `COC(C(=NOC[Si](C)(C)C)C(O)C(C)O)C1Cc2cc3cc(OC4CC(OC5CC(O)C(O)C(C)O5)C(O)C(C)O4)c(C)c(O)c3c(O)c2C(=O)C1OC1CC(OC2CC(OC3CC(C)(O)C(O)C(C)O3)C(O)C(C)O2)C(O)C(C)O1` (stereo not drawn) [MTM (5Z)] here?
The value was 0.68.

Which “PC:TC32 (cellular selectivity)” value does the source give for `COC(C(=NOCC(=O)Nc1ccc2c(c1)CC(=O)N2)C(O)C(C)O)C1Cc2cc3cc(OC4CC(OC5CC(O)C(O)C(C)O5)C(O)C(C)O4)c(C)c(O)c3c(O)c2C(=O)C1OC1CC(OC2CC(OC3CC(C)(O)C(O)C(C)O3)C(O)C(C)O2)C(O)C(C)O1` (stereo not drawn) [MTM (67)] here?
The value was 3.8.

For `COC(C(=NOCCOc1ccc(C(F)(F)F)cc1)C(O)C(C)O)C1Cc2cc3cc(OC4CC(OC5CC(O)C(O)C(C)O5)C(O)C(C)O4)c(C)c(O)c3c(O)c2C(=O)C1OC1CC(OC2CC(OC3CC(C)(O)C(O)C(C)O3)C(O)C(C)O2)C(O)C(C)O1` (stereo not drawn) [MTM (16)], which “PC:TC32 (cellular selectivity)” value is on record?
Its value is 7.91.

`COC(=O)C(Cc1c[nH]c2ccccc12)NC(=O)C(Cc1c[nH]c2ccccc12)NC(=O)CON=C(C(O)C(C)O)C(OC)C1Cc2cc3cc(OC4CC(OC5CC(O)C(O)C(C)O5)C(O)C(C)O4)c(C)c(O)c3c(O)c2C(=O)C1OC1CC(OC2CC(OC3CC(C)(O)C(O)C(C)O3)C(O)C(C)O2)C(O)C(C)O1` (stereo not drawn) [MTM (24)] was tested. Which “PC:TC32 (cellular selectivity)” value did it give?
The value was 6.9.

For `COC(C(=NOCC(=O)Nc1cccc2[nH]ccc12)C(O)C(C)O)C1Cc2cc3cc(OC4CC(OC5CC(O)C(O)C(C)O5)C(O)C(C)O4)c(C)c(O)c3c(O)c2C(=O)C1OC1CC(OC2CC(OC3CC(C)(O)C(O)C(C)O3)C(O)C(C)O2)C(O)C(C)O1` (stereo not drawn) [MTM (68)], which “PC:TC32 (cellular selectivity)” value is on record?
The value was 4.5.

For `COC(C(=NOCC(=O)Nc1cccc2cc[nH]c12)C(O)C(C)O)C1Cc2cc3cc(OC4CC(OC5CC(O)C(O)C(C)O5)C(O)C(C)O4)c(C)c(O)c3c(O)c2C(=O)C1OC1CC(OC2CC(OC3CC(C)(O)C(O)C(C)O3)C(O)C(C)O2)C(O)C(C)O1` (stereo not drawn) [MTMox (73)], which “PC:TC32 (cellular selectivity)” value is on record?
The value was 5.9.

For `COC(=O)C(Cc1ccccc1)NC(=O)CON=C(C(O)C(C)O)C(OC)C1Cc2cc3cc(OC4CC(OC5CC(O)C(O)C(C)O5)C(O)C(C)O4)c(C)c(O)c3c(O)c2C(=O)C1OC1CC(OC2CC(OC3CC(C)(O)C(O)C(C)O3)C(O)C(C)O2)C(O)C(C)O1` (stereo not drawn) [MTM (27)], which “PC:TC32 (cellular selectivity)” value is on record?
The value was 7.06.

Which “PC:TC32 (cellular selectivity)” value does the source give for `COC(C(=NOCc1ccc([N+](=O)[O-])cc1)C(O)C(C)O)C1Cc2cc3cc(OC4CC(OC5CC(O)C(O)C(C)O5)C(O)C(C)O4)c(C)c(O)c3c(O)c2C(=O)C1OC1CC(OC2CC(OC3CC(C)(O)C(O)C(C)O3)C(O)C(C)O2)C(O)C(C)O1` (stereo not drawn) [MTM (11)] here?
Its value is 1.30.

Which “PC:TC32 (cellular selectivity)” value does the source give for `COC(C(=NOCCc1c[nH]c2ccccc12)C(O)C(C)O)C1Cc2cc3cc(OC4CC(OC5CC(O)C(O)C(C)O5)C(O)C(C)O4)c(C)c(O)c3c(O)c2C(=O)C1OC1CC(OC2CC(OC3CC(C)(O)C(O)C(C)O3)C(O)C(C)O2)C(O)C(C)O1` (stereo not drawn) [MTM (19E)] here?
The value was 1.40.

For `COC(=O)C(Cc1c[nH]c2ccccc12)NC(=O)C(C)NC(=O)CON=C(C(O)C(C)O)C(OC)C1Cc2cc3cc(OC4CC(OC5CC(O)C(O)C(C)O5)C(O)C(C)O4)c(C)c(O)c3c(O)c2C(=O)C1OC1CC(OC2CC(OC3CC(C)(O)C(O)C(C)O3)C(O)C(C)O2)C(O)C(C)O1` (stereo not drawn) [MTM (34)], which “PC:TC32 (cellular selectivity)” value is on record?
The value was 4.28.

How did the “PC:TC32 (cellular selectivity)” value turn out when `COC(C(=NOC(C)(C)C)C(O)C(C)O)C1Cc2cc3cc(OC4CC(OC5CC(O)C(O)C(C)O5)C(O)C(C)O4)c(C)c(O)c3c(O)c2C(=O)C1OC1CC(OC2CC(OC3CC(C)(O)C(O)C(C)O3)C(O)C(C)O2)C(O)C(C)O1` (stereo not drawn) [MTM (15E)] was run?
Its value is 1.87.

How did the “PC:TC32 (cellular selectivity)” value turn out when `CNC(=O)C(Cc1c[nH]c2ccccc12)NC(=O)C(Cc1c[nH]c2ccccc12)NC(=O)CON=C(C(O)C(C)O)C(OC)C1Cc2cc3cc(OC4CC(OC5CC(O)C(O)C(C)O5)C(O)C(C)O4)c(C)c(O)c3c(O)c2C(=O)C1OC1CC(OC2CC(OC3CC(C)(O)C(O)C(C)O3)C(O)C(C)O2)C(O)C(C)O1` (stereo not drawn) [MTM (53)] was run?
The value was 5.0.
